Assay results reported in patent US9273058B2 (BRISTOL-MYERS SQUIBB COMPANY, priority 2013, dated 2016).

Columns and labels:
CK1ε = CK1ε (Homo sapiens, UniProt P49674); assay: CK1ε kinase assay (Caliper LabChip electrophoretic separation of fluoresceinated peptide substrate and product); format: biochemical; conditions: 200 pM CK1ε, 50 μM ATP, 1.5 μM peptide, 22 hours at room temperature; read-out: CK1ε IC50 range
Procedure, shortened: (§1)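 IC50 values were obtained by non-linear regression from eleven-concentration titrations. The kinase reactions were incubated for 22 hours at room temperature before termination with 35 mM EDTA.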

CK1δ = CK1δ (Homo sapiens, UniProt P48730); assay: CK1δ kinase assay (Caliper LabChip electrophoretic separation of fluoresceinated peptide substrate and product); format: biochemical; conditions: 200 pM CK1δ, 50 μM ATP, 1.5 μM peptide, 22 hours at room temperature; read-out: CK1δ IC50 range
Procedure, shortened: as §1

Sequence of CK1δ (P48730 whole entry): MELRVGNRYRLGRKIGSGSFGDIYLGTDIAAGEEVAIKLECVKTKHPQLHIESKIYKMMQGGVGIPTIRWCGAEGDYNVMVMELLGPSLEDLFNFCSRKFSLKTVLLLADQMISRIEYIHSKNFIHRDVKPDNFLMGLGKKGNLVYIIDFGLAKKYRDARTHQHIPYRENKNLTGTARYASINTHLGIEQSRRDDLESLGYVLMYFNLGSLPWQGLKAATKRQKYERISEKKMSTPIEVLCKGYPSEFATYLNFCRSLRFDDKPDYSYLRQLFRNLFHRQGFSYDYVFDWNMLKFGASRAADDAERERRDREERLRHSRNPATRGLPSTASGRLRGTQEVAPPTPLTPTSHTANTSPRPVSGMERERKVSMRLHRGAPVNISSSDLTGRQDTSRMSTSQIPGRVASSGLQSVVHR
Sequence of CK1ε (P49674 whole entry): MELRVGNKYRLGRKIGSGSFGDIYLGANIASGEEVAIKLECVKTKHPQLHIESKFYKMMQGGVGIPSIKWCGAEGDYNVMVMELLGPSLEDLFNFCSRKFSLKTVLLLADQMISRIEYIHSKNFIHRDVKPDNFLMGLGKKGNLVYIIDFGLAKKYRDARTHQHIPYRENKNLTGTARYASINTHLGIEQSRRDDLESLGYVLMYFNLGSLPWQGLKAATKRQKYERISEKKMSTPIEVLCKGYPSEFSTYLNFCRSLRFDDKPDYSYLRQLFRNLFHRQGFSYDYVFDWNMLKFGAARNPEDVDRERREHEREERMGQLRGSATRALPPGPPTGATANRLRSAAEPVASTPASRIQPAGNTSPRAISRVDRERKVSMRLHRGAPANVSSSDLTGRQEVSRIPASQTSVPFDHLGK

| IC50 (CK1ε) | IC50 (CK1δ) | SMILES |
| --- | --- | --- |
| 0.01 to 10 nM | 0.01 to 10 nM | NC(=O)c1c(-c2cccc(Cl)c2)nn2c1CN(C(=O)NC1(COC(F)F)CCC1)CC2 [Compound 225, 2-(3-Chlorophenyl)-N^5-(1-((difluoromethoxy)methyl)cyclobutyl)-6,7-dihydropyrazolo[1,5-a] pyrazine-3,5(4H)-dicarboxamide] |
| 0.01 to 10 nM | 0.01 to 10 nM | CC(C)(NC(=O)N1CCn2nc(-c3ccc(F)c(Cl)c3)c(C(N)=O)c2C1)C1CC(F)(F)C1 [Compound 226, 2-(3-Chloro-4-fluorophenyl)-N^5-(2-(3,3-difluorocyclobutyl)propan-2-yl)-6,7-dihydropyrazolo[1,5-a]pyrazine-3,5(4H)-dicarboxamide] |
| 0.01 to 10 nM | 0.01 to 10 nM | CC(C)(NC(=O)N1CCn2nc(-c3cccc(Cl)c3)c(C(N)=O)c2C1)C1CC(F)(F)C1 [Compound 227, 2-(3-Chlorophenyl)-N^5-(2-(3,3-difluorocyclobutyl)propan-2-yl)-6,7-dihydropyrazolo[1,5-a] pyrazine-3,5(4H)-dicarboxamide] |
| 0.01 to 10 nM | 0.01 to 10 nM | CC(C)(NC(=O)N1CCn2nc(-c3ccc(Cl)c(Cl)c3)c(C(N)=O)c2C1)C1CCC(F)(F)CC1 [Compound 234, 2-(3,4-Dichlorophenyl)-N^5-(2-(4,4-difluorocyclohexyl)propan-2-yl)-6,7-dihydropyrazolo[1,5-a] pyrazine-3,5(4H)-dicarboxamide] |
| 0.01 to 10 nM | 0.01 to 10 nM | NC(=O)c1c(-c2ccc(F)c(Cl)c2)nn2c1CN(C(=O)NC1(C(F)F)CCC1)CC2 [Compound 235, 2-(3-Chloro-4-fluorophenyl)-N^5-(1-(difluoromethyl)cyclobutyl)-6,7-dihydro pyrazolo[1,5-a]pyrazine-3,5(4H)-dicarboxamide] |
| 0.01 to 10 nM | 0.01 to 10 nM | NC(=O)c1c(-c2cccc(Cl)c2)nn2c1CN(C(=O)NC1(C(F)F)CCC1)CC2 [Compound 236, 2-(3-Chlorophenyl)-N^5-(1-(difluoromethyl)cyclobutyl)-6,7-dihydropyrazolo[1,5-a] pyrazine-3,5(4H)-dicarboxamide] |
| 0.01 to 10 nM | 0.01 to 10 nM | NC(=O)c1c(-c2ccc(F)c(Cl)c2)nn2c1CN(C(=O)N[C@@H]1CC[C@H]1COC(F)F)CC2 [Compound 241, 2-(3-Chloro-4-fluorophenyl)-N^5-((1R,2R)-2-((difluoromethoxy)methyl)cyclobutyl)-6,7-dihydropyrazolo[1,5-a]pyrazine-3,5(4H)-dicarboxamide] |
| 0.01 to 10 nM | 0.01 to 10 nM | NC(=O)c1c(-c2ccc(Cl)c(Cl)c2)nn2c1CN(C(=O)NC1CC(C(F)F)C1)CC2 (stereo not drawn) [Compound 254, 2-(3,4-Dichlorophenyl)-N^5-(3-(difluoromethyl)cyclobutyl)-6,7-dihydropyrazolo[1,5-a]pyrazine-3,5(4H)-dicarboxamide] |
| 0.01 to 10 nM | 0.01 to 10 nM | NC(=O)c1c(-c2ccc(Cl)c(Cl)c2)nn2c1CN(C(=O)NC1CC(C(F)F)C1)CC2 (stereo not drawn) [Compound 255, 2-(3,4-Dichlorophenyl)-N^5-(3-(difluoromethyl)cyclobutyl)-6,7-dihydropyrazolo[1,5-a]pyrazine-3,5(4H)-dicarboxamide] |
| 0.01 to 10 nM | 0.01 to 10 nM | NC(=O)c1c(-c2cccc(Cl)c2)nn2c1CN(C(=O)N[C@H]1C[C@@H](OC(F)(F)F)C1)CC2 [Compound 262, 2-(3-Chlorophenyl)-N^5-((1r,3r)-3-(trifluoromethoxy)cyclobutyl)-6,7-dihydropyrazolo[1,5-a] pyrazine-3,5(4H)-dicarboxamide] |
| 0.01 to 10 nM | 0.01 to 10 nM | N#Cc1ccc(O[C@H]2C[C@H](NC(=O)N3CCn4nc(-c5ccc(F)c(Cl)c5)c(C(N)=O)c4C3)C2)cc1 [Compound 266, 2-(3-Chloro-4-fluorophenyl)-N^5-((1r,3r)-3-(4-cyanophenoxyl)cyclobutyl)-6,7-dihydropyrazolo[1,5-a]pyrazine-3,5(4H)-dicarboxamide] |
| 0.01 to 10 nM | 0.01 to 10 nM | CS[C@H]1C[C@@H](NC(=O)N2CCn3nc(-c4ccc(Cl)c(Cl)c4)c(C(N)=O)c3C2)C1 [Compound 271, 2-(3,4-Dichlorophenyl)-N^5-((1s,3s)-3-(methylthio)cyclobutyl)-6,7-dihydropyrazolo[1,5-a] pyrazine-3,5(4H)-dicarboxamide] |
| 0.01 to 10 nM | 0.01 to 10 nM | CS(=O)(=O)[C@H]1C[C@@H](NC(=O)N2CCn3nc(-c4ccc(F)c(Cl)c4)c(C(N)=O)c3C2)C1 [Compound 272, 2-(3-Chloro-4-fluorophenyl)-N^5-((1s,3s)-3-(methylsulfonyl)cyclobutyl)-6,7-dihydropyrazolo[1,5-a]pyrazine-3,5(4H)-dicarboxamide] |

Further lines, the compound ahead of its results:

| SMILES | IC50 (CK1ε) | IC50 (CK1δ) |
| --- | --- | --- |
| CC1(CNC(=O)N2CCn3nc(-c4ccc(F)c(Cl)c4)c(C(N)=O)c3C2)CC(F)(F)C1 [Compound 229, 2-(3-Chloro-4-fluorophenyl)-N^5-((3,3-difluoro-1-methylcyclobutyl)methyl)-6,7-dihydropyrazolo[1,5-a]pyrazine-3,5(4H)-dicarboxamide] | 0.01 to 10 nM | 0.01 to 10 nM |
| CC1(CNC(=O)N2CCn3nc(-c4cccc(Cl)c4)c(C(N)=O)c3C2)CC(F)(F)C1 [Compound 230, 2-(3-Chlorophenyl)-N^5-((3,3-difluoro-1-methylcyclobutyl)methyl)-6,7-dihydropyrazolo[1,5-a] pyrazine-3,5(4H)-dicarboxamide] | 0.01 to 10 nM | 0.01 to 10 nM |
| CC(C)(NC(=O)N1CCn2nc(-c3ccc(F)c(Cl)c3)c(C(N)=O)c2C1)C1CCC(F)(F)CC1 [Compound 232, 2-(3-Chloro-4-fluorophenyl)-N^5-(2-(4,4-difluorocyclohexyl)propan-2-yl)-6,7-dihydropyrazolo[1,5-a]pyrazine-3,5(4H)-dicarboxamide] | 0.01 to 10 nM | 0.01 to 10 nM |
| CC(C)(NC(=O)N1CCn2nc(-c3cccc(Cl)c3)c(C(N)=O)c2C1)C1CCC(F)(F)CC1 [Compound 233, 2-(3-Chlorophenyl)-N^5-(2-(4,4-difluorocyclohexyl)propan-2-yl)-6,7-dihydropyrazolo[1,5-a] pyrazine-3,5(4H)-dicarboxamide] | 0.01 to 10 nM | 0.01 to 10 nM |
| NC(=O)c1c(-c2ccc(Cl)c(Cl)c2)nn2c1CN(C(=O)NC1(C(F)F)CCC1)CC2 [Compound 237, 2-(3,4-Dichlorophenyl)-N^5-(1-(difluoromethyl)cyclobutyl)-6,7-dihydropyrazolo[1,5-a] pyrazine-3,5(4H)-dicarboxamide] | 0.01 to 10 nM | 0.01 to 10 nM |
| NC(=O)c1c(-c2cccc(Cl)c2)nn2c1CN(C(=O)N[C@@H]1CC[C@@H]1C(F)F)CC2 [Compound 239, 2-(3-Chlorophenyl)-N^5-((1R,2S)-2-(difluoromethyl)cyclobutyl)-6,7-dihydropyrazolo[1,5-a] pyrazine-3,5(4H)-dicarboxamide] | 0.01 to 10 nM | 0.01 to 10 nM |
| NC(=O)c1c(-c2ccc(Cl)c(Cl)c2)nn2c1CN(C(=O)N[C@@H]1CC[C@H]1COC(F)F)CC2 [Compound 243, 2-(3,4-Dichlorophenyl)-N^5-((1R,2R)-2-((difluoromethoxy)methyl)cyclobutyl)-6,7-dihydropyrazolo[1,5-a] pyrazine-3,5(4H)-dicarboxamide] | 0.01 to 10 nM | 0.01 to 10 nM |
| CC1(NC(=O)N2CCn3nc(-c4ccc(F)c(Cl)c4)c(C(N)=O)c3C2)CC(O)C1 (stereo not drawn) [Compound 260, 2-(3-Chloro-4-fluorophenyl)-N^5-(3-hydroxy-1-methylcyclobutyl)-6,7-dihydropyrazolo[1,5-a]pyrazine-3,5(4H)-dicarboxamide] | 0.01 to 10 nM | 0.01 to 10 nM |
| NC(=O)c1c(-c2ccc(F)c(Cl)c2)nn2c1CN(C(=O)N[C@H]1C[C@@H](OC(F)(F)F)C1)CC2 [Compound 261, 2-(3-Chloro-4-fluorophenyl)-N^5-((1r,3r)-3-(trifluoromethoxy)cyclobutyl)-6,7-dihydropyrazolo[1,5-a]pyrazine-3,5(4H)-dicarboxamide] | 0.01 to 10 nM | 0.01 to 10 nM |
| NC(=O)c1c(-c2ccc(Cl)c(Cl)c2)nn2c1CN(C(=O)N[C@H]1C[C@@H](OC(F)(F)F)C1)CC2 [Compound 263, 2-(3,4-Dichlorophenyl)-N^5-((1r,3r)-3-(trifluoromethoxy)cyclobutyl)-6,7-dihydropyrazolo[1,5-a] pyrazine-3,5(4H)-dicarboxamide] | 0.01 to 10 nM | 0.01 to 10 nM |
| NC(=O)c1c(-c2ccc(F)c(Cl)c2)nn2c1CN(C(=O)N[C@H]1C[C@H](OC(F)(F)F)C1)CC2 [Compound 264, 2-(3-Chloro-4-fluorophenyl)-N^5-((1r,3r)-3-(trifluoromethoxy)cyclobutyl)-6,7-dihydropyrazolo[1,5-a]pyrazine-3,5(4H)-dicarboxamide] | 0.01 to 10 nM | 0.01 to 10 nM |
| N#Cc1ccc(O[C@H]2C[C@H](NC(=O)N3CCn4nc(-c5cccc(Cl)c5)c(C(N)=O)c4C3)C2)cc1 [Compound 267, 2-(3-Chlorophenyl)-N^5-((1r,3r)-3-(4-cyanophenoxy)cyclobutyl)-6,7-dihydropyrazolo[1,5-a] pyrazine-3,5(4H)-dicarboxamide] | 0.01 to 10 nM | 0.01 to 10 nM |
| CS[C@H]1C[C@@H](NC(=O)N2CCn3nc(-c4ccc(F)c(Cl)c4)c(C(N)=O)c3C2)C1 [Compound 269, 2-(3-Chloro-4-fluorophenyl)-N^5-((1s,3s)-3-(methylthio)cyclobutyl)-6,7-dihydropyrazolo[1,5-a]pyrazine-3,5(4H)-dicarboxamide] | 0.01 to 10 nM | 0.01 to 10 nM |
| CS[C@H]1C[C@@H](NC(=O)N2CCn3nc(-c4cccc(Cl)c4)c(C(N)=O)c3C2)C1 [Compound 270, 2-(3-Chlorophenyl)-N^5-((1s,3s)-3-(methylthio)cyclobutyl)-6,7-dihydropyrazolo[1,5-a] pyrazine-3,5(4H)-dicarboxamide] | 0.01 to 10 nM | 0.01 to 10 nM |
